Patent US8937176B2, “Compounds” (Boehringer Ingelheim International GmbH, priority 2011, dated 2015)

Molecular target: T1, human recombinant mGluR5 (Homo sapiens, UniProt P41594)
T1 construct: expressed in transfected cells; host or cells: HEK 293 cell line
Assay: Positive modulation of mGluR5, calcium based FLIPR assay in HEK 293 cells
Details: EC50 of the modulation; HEK 293 cell line expressing human recombinant mGluR5; glutamate at approximately 5% basal stimulation; peak height of Ca release fluorescence signal
Experimental: The positive modulation of mGluR5 is measured in a HEK 293 cell line expressing human recombinant mGluR5 and is detected with calcium based FLIPR assay. The cells are cultured with DMEM supplemented with 10% FCS, 2 μg/mL tetracycline, 100 μg/mL hygromycin and 500 μg/mL gneticin. The cell culture media is exchanged for tetracycline-free cell culture media 3-7 days before the assay. One day before the assay the cell culture medium is exchanged to DMEM without glutamine and phenol red and supplemented with 10% FCS, 100 μg/mL hygromycin and 500 μg/mL geneticin. On the assay day, the medium of the subconfluent cultures is removed and the cells are detached by addition of 2.5 ml EDTA(0.02%) per 175 cm2 culture flask for 1 minute. The cells are resuspend in Ringer solution (140 mM NaCl, 5 mM KCl, 2.5 mM CaCl2, 1.5 mM MgCl2, 5 mM Glucose, 10 mM Hepes; adjusted to pH 7.4 with NaOH), pooled and Ringer solution added to adjust the volume to 50 mL. The cell suspension is centrifuged for […] at 1500 U/min (425 g). The supernatant is removed and the cells washed a second time with 50 ml fresh Ringer solution and centrifuged again as before. The supernatant is again removed and the pellet resuspended in Ringer solution to 1,000,000 cells/ml (1×10^6 cells/mL). The cells are plated onto BD BioCoat Poly-D-Lysine 384 well plates (20.000 cells/well; 20 μl/well). The lid covered plates are then incubated until use at 37° C./10% CO2. For dye loading, 20 μl of Calcium-4 assay kit solution (prepared according to the manufacturer's description in Ringer solution) are added to the cells and the plates are incubated for 80 min 37° C. and then 10 min at room temperature.
Controls, Compound Dilution and Assay Execution:
Each assay plate contained wells with “high” and “low” controls:
Low controls 1% DMSO/ringer solution+basal glutamate activation (defined as 100% CTL).
High controls 10 μM CDPPB+basal glutamate activation (defined as 200% CTL).
Test compounds are dissolved and diluted in DMSO to 100-fold the desired concentrations. In a second step, the compounds are diluted in Ringer solution such that the compounds are 4-fold more concentrated than the desired final assay concentration. The final DMSO concentration was 1%.
20 μl of each compound solution are then transferred to the assay plate and the Ca2+ kinetic is measured to determine any intrinsic compound activity. After 5 min incubation in the FLIPR device, the second stimulation with 20 μl of glutamate in Ringer solution (glutamate concentration adjusted to approximately 5% basal stimulation of the maximal possible glutamate effect) is added and the kinetic Ca2+ response of the wells was measured for the modulation effect.
The peak height of the Ca release related fluorescence signal (9-66) is used for the EC50. The EC50 of the modulation is calculated over a nonlinear regression with GraphPad Prism (Table 1).

T1 sequence (P41594 21-1212): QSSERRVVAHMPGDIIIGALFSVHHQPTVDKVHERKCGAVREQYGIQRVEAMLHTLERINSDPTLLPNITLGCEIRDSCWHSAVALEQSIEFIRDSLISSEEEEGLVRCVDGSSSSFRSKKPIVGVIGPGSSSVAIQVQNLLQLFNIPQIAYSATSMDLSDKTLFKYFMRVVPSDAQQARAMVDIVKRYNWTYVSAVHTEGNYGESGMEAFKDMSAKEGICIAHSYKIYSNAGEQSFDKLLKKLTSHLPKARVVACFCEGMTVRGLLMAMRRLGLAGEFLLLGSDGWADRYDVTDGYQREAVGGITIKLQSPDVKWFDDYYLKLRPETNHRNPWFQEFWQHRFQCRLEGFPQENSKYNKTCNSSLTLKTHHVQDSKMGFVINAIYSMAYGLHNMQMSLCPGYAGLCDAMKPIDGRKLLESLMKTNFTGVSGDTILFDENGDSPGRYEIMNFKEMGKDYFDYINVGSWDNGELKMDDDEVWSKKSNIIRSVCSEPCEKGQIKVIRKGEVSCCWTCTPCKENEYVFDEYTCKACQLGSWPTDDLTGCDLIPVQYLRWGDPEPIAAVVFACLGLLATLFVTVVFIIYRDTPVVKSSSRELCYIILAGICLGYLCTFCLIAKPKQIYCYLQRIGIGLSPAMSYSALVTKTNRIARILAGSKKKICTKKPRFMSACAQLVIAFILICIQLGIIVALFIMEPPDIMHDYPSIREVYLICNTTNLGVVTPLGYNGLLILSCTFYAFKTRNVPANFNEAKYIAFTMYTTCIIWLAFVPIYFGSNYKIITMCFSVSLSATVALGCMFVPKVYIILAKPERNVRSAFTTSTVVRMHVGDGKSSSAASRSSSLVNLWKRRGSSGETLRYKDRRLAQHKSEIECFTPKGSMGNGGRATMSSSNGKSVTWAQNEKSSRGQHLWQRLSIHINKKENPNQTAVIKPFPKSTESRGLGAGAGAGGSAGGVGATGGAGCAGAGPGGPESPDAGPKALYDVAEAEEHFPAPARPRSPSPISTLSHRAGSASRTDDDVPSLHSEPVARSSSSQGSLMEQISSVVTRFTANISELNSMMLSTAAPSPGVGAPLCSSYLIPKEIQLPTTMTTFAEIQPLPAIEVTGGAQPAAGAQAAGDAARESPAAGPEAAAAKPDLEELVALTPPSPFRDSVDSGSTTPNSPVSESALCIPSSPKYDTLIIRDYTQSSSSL

Row | SMILES | EC50 [nM]
1 | O=C(Cc1nc(-c2ccccc2)cn1-c1ccccc1)N1CCN(c2ncccn2)CC1 [Example 7.01.01., 2-(1,4-diphenyl-1H-imidazol-2-yl)-1-(4-pyrimidin-2-yl-piperazin-1-yl)-ethanone] | 155
2 | O=C(Cc1nc(-c2ccc(F)cc2)cn1-c1ccc(F)cc1)N1CCN(c2ncccn2)CC1 [Example 7.01.02.] | 43
3 | COc1ccc(-c2cn(-c3ccc(OC)cc3)c(CC(=O)N3CCN(c4ncccn4)CC3)n2)cc1 [Example 7.01.03.] | 88
4 | Cc1ccc(-n2cc(-c3ccccc3)nc2CC(=O)N2CCN(c3ncccn3)CC2)cc1 [Example 7.01.04.] | 211
5 | O=C(Cc1nc(-c2ccc(F)cc2)cn1-c1ccc(F)cc1)N1CCN(c2ccccn2)CC1 [Example 7.02.01., 2-(1,4-Bis-(4-fluoro-phenyl)-1H-imidazol-2-yl)-1-(4-pyridin-2-yl-piperazin-1-yl)-ethanonene] | 54
6 | COc1ccnc(N2CCN(C(=O)Cc3nc(-c4ccc(F)cc4)cn3-c3ccc(F)cc3)CC2)c1 [Example 7.03.01., 2-(1,4-Bis-(4-fluoro-phenyl)-1H-imidazol-2-yl)-1-(4-(4-methoxy-pyridin-2-yl)-piperazin-1-yl)-ethanone] | 57
7 | O=C(Cc1nc(-c2ccc(F)cc2)cn1-c1ccc(F)cc1)N1CCN(c2cccnn2)CC1 [Example 7.03.02.] | 112
8 | O=C(Cc1nc(-c2ccc(F)cc2)cn1-c1ccc(F)cc1)N1CCN(c2ncncn2)CC1 [Example 7.04.01., 2-(1,4-Bis-(4-fluoro-phenyl)-1H-imidazol-2-yl)-1-(4-[1,3,5]triazin-2-yl-piperazin-1-yl)-ethanone] | 52
9 | COc1cc(N2CCN(C(=O)Cc3nc(-c4ccc(F)cc4)cn3-c3ccc(F)cc3)CC2)ncn1 [Example 7.04.02.] | 80
10 | Cc1ccc(-c2cn(-c3ccc(F)cc3)c(CC(=O)N3CCN(c4cccnn4)CC3)n2)cc1 [Example 7.04.03.] | 42
11 | Cc1ccc(-c2cn(-c3ccc(F)cc3)c(CC(=O)N3CCN(c4ncccn4)CC3)n2)cc1 [Example 7.04.04.] | 18
12 | COc1ccnc(N2CCN(C(=O)Cc3nc(-c4ccc(C)cc4)cn3-c3ccc(F)cc3)CC2)c1 [Example 7.04.05.] | 42
13 | Cc1ccc(-c2cn(-c3ccc(F)cc3)c(CC(=O)N3CCN(c4ccccn4)CC3)n2)cc1 [Example 7.04.06.] | 36
14 | COc1cc(N2CCN(C(=O)Cc3nc(-c4ccc(C)cc4)cn3-c3ccc(F)cc3)CC2)ncn1 [Example 7.04.07.] | 114
15 | Cc1ccc(-c2cn(-c3ccc(F)cc3)c(CC(=O)N3CCN(c4ncncn4)CC3)n2)cc1 [Example 7.04.08.] | 41
16 | COc1cnc(N2CCN(C(=O)Cc3nc(-c4ccc(C)cc4)cn3-c3ccc(F)cc3)CC2)nc1 [Example 7.04.09.] | 20
17 | COc1ccc(-c2cn(-c3ccc(F)cc3)c(CC(=O)N3CCN(c4ncccn4)CC3)n2)cc1 [Example 7.04.10.] | 20
18 | COc1ccc(-c2cn(-c3ccc(F)cc3)c(CC(=O)N3CCN(c4cccnn4)CC3)n2)cc1 [Example 7.04.11.] | 40
19 | COc1ccc(-c2cn(-c3ccc(F)cc3)c(CC(=O)N3CCN(c4cc(OC)ccn4)CC3)n2)cc1 [Example 7.04.12.] | 40
20 | COc1ccc(-c2cn(-c3ccc(F)cc3)c(CC(=O)N3CCN(c4ccccn4)CC3)n2)cc1 [Example 7.04.13.] | 37
21 | COc1ccc(-c2cn(-c3ccc(F)cc3)c(CC(=O)N3CCN(c4cc(OC)ncn4)CC3)n2)cc1 [Example 7.04.14.] | 33
22 | COc1ccc(-c2cn(-c3ccc(F)cc3)c(CC(=O)N3CCN(c4ncncn4)CC3)n2)cc1 [Example 7.04.15.] | 91
23 | COc1ccc(-c2cn(-c3ccc(F)cc3)c(CC(=O)N3CCN(c4ncc(OC)cn4)CC3)n2)cc1 [Example 7.04.16.] | 47
24 | Cc1cc(-c2cn(-c3ccc(F)cc3)c(CC(=O)N3CCN(c4ncccn4)CC3)n2)ccc1Cl [Example 7.04.17.] | 21

Row | SMILES | EC50 [nM]
25 | Cc1cc(-c2cn(-c3ccc(F)cc3)c(CC(=O)N3CCN(c4ccccn4)CC3)n2)ccc1Cl [Example 7.04.18.] | 30
26 | Cc1cc(-c2cn(-c3ccc(F)cc3)c(CC(=O)N3CCN(c4cccnn4)CC3)n2)ccc1Cl [Example 7.04.19.] | 13
27 | COc1ccnc(N2CCN(C(=O)Cc3nc(-c4ccc(Cl)c(C)c4)cn3-c3ccc(F)cc3)CC2)c1 [Example 7.04.20.] | 69
28 | COc1cc(N2CCN(C(=O)Cc3nc(-c4ccc(Cl)c(C)c4)cn3-c3ccc(F)cc3)CC2)ncn1 [Example 7.04.21.] | 114
29 | Cc1cc(-c2cn(-c3ccc(F)cc3)c(CC(=O)N3CCN(c4ncncn4)CC3)n2)ccc1Cl [Example 7.04.22.] | 35
30 | Cc1cc(-c2cn(-c3ccc(F)cc3)c(CC(=O)N3CCN(c4ccccn4)CC3)n2)ccc1F [Example 7.04.23.] | 42
31 | Cc1cc(-c2cn(-c3ccc(F)cc3)c(CC(=O)N3CCN(c4cccnn4)CC3)n2)ccc1F [Example 7.04.24.] | 64
32 | Cc1cc(-c2cn(-c3ccc(F)cc3)c(CC(=O)N3CCN(c4ncccn4)CC3)n2)ccc1F [Example 7.04.25.] | 21
33 | COc1cc(N2CCN(C(=O)Cc3nc(-c4ccc(F)c(C)c4)cn3-c3ccc(F)cc3)CC2)ncn1 [Example 7.04.26.] | 41
34 | COc1ccnc(N2CCN(C(=O)Cc3nc(-c4ccc(F)c(C)c4)cn3-c3ccc(F)cc3)CC2)c1 [Example 7.04.27.] | 44
35 | Cc1cc(-c2cn(-c3ccc(F)cc3)c(CC(=O)N3CCN(c4ncncn4)CC3)n2)ccc1F [Example 7.04.28.] | 24
36 | COc1ccc(-c2cn(-c3ccccc3)c(CC(=O)N3CCN(c4cc(OC)ncn4)CC3)n2)cc1 [Example 7.04.29.] | 119
37 | COc1ccc(-c2cn(-c3ccccc3)c(CC(=O)N3CCN(c4ccccn4)CC3)n2)cc1 [Example 7.04.30.] | 190
38 | COc1ccc(-c2cn(-c3ccccc3)c(CC(=O)N3CCN(c4cc(OC)ccn4)CC3)n2)cc1 [Example 7.04.31.] | 146
39 | COc1ccc(-c2cn(-c3ccccc3)c(CC(=O)N3CCN(c4ncncn4)CC3)n2)cc1 [Example 7.04.32.] | 281
40 | COc1ccc(-c2cn(-c3ccccc3)c(CC(=O)N3CCN(c4ncccn4)CC3)n2)cc1 [Example 7.04.33.] | 112
41 | COc1ccc(-c2cn(-c3ccccc3)c(CC(=O)N3CCN(c4ncc(F)cn4)CC3)n2)cc1 [Example 7.04.34.] | 95
42 | COc1ccc(-c2cn(-c3ccccc3)c(CC(=O)N3CCN(c4ncc(OC)cn4)CC3)n2)cc1 [Example 7.04.35.] | 76
43 | COc1ccc(-c2cn(-c3ccc(F)cc3)c(CC(=O)N3CCN(c4ncc(F)cn4)CC3)n2)cc1 [Example 7.04.36.] | 57
44 | COc1cccc(-c2cn(-c3ccc(F)cc3)c(CC(=O)N3CCN(c4ncccn4)CC3)n2)c1 [Example 7.04.37.] | 46
45 | COc1cccc(-c2cn(-c3ccc(F)cc3)c(CC(=O)N3CCN(c4cc(OC)ncn4)CC3)n2)c1 [Example 7.04.38.] | 108
46 | COc1cccc(-c2cn(-c3ccc(F)cc3)c(CC(=O)N3CCN(c4cc(OC)ccn4)CC3)n2)c1 [Example 7.04.39.] | 106
47 | COc1cccc(-c2cn(-c3ccc(F)cc3)c(CC(=O)N3CCN(c4ncncn4)CC3)n2)c1 [Example 7.04.40.] | 143
